{
  "source": "patent US20240008482A1",
  "about": "“METHOD OF IN[…] VIRUS USING A GLUT[…] COMPOSITION” (priority 2021, published 2024)",
  "key": {"poliovirus type 1": {"test_system": "poliovirus type 1", "format": "cell-based"}, "MNV": {"test_system": "MNV", "format": "cell-based, Murine Norovirus (MNV)"}, "adenovirus type 5": {"test_system": "adenovirus type 5", "format": "cell-based"}, "SARS-CoV (Hanoi strain)": {"test_system": "SARS-CoV (Hanoi strain)", "settings": "cited from earlier work"}, "SARS-CoV (Isolate FFM-1)": {"test_system": "SARS-CoV (Isolate FFM-1)", "settings": "cited from earlier work"}, "HCoV-229E": {"test_system": "HCoV-229E", "settings": "2% glutaraldehyde; cited from earlier work"}},
  "data": [
    {"smiles": "C=O", "note": "[formaldehyde]", "values": [
      {"measurement": "reduction of viral titre achieved", "setting": "poliovirus type 1", "value": "< 4", "unit": "log10"},
      {"measurement": "reduction of viral titre achieved", "setting": "MNV", "value": "< 4", "unit": "log10"},
      {"measurement": "time after which a 4 log10 reduction is achieved", "setting": "adenovirus type 5", "value": 30, "unit": "minutes"}
    ]},
    {"smiles": "O=CCCCC=O", "note": "[glutaraldehyde]", "values": [
      {"measurement": "time to inactivate the virus", "setting": "SARS-CoV (Hanoi strain)", "value": 5, "unit": "min"},
      {"measurement": "time to inactivate the virus", "setting": "SARS-CoV (Isolate FFM-1)", "value": 2, "unit": "min"},
      {"measurement": "effectiveness against the virus", "setting": "HCoV-229E", "value": "effective"}
    ]}
  ]
}
